# Experimental data published in article PMC8813987, “Schwann cell endosome CGRP signals elicit periorbital mechanical allodynia in mice” (Nature Communications, 2022).
# Biological target: T1, CLR/RAMP1 (calcitonin receptor-like receptor) (Homo sapiens, UniProt O60894+Q16602)
# T1 construct: gene CALCRL; with RAMP1
# Assay: inhibition of CGRP-evoked Ca2+ response in primary human Schwann cells (preincubation, then washout)
# Format: cell-based
# T1 sequence (Q16602 23-461): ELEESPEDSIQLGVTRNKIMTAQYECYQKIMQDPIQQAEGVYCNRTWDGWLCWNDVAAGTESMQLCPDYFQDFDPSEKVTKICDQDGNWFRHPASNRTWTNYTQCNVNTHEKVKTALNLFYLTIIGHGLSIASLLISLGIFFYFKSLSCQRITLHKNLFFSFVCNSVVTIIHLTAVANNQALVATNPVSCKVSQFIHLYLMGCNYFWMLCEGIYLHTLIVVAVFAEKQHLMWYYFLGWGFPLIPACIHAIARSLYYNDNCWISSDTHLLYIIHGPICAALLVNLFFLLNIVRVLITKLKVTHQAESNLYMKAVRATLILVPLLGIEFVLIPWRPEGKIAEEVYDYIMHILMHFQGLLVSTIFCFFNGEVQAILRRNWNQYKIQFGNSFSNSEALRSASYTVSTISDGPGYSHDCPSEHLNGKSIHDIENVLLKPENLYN
# T1 sequence (O60894 27-148): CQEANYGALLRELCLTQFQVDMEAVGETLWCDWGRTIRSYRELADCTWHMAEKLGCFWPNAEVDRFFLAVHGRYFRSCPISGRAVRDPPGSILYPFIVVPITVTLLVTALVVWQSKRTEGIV
smiles,measurement,value
O=C(CN1C(=O)C2(CCCC2)NC[C@H]1c1cc(F)cc(F)c1)Nc1ccc2c(c1)C[C@@]1(C2)C(=O)Nc2ncccc21 [MK-3207],IC50,2900 nM
